Assay results reported in paper PMC3469418, “New Partners in Regulation of Gene Expression: The Enhancer of Trithorax and Polycomb Corto Interacts with Methylated Ribosomal Protein L12 Via Its Chromodomain” (PLoS Genetics, 2012).
Read-outs that look alike come from different tables or passages of the source. Where a SMILES comes first, the peptide text is derived from it. Where no end group is shown, it is not given here. [ ]: non-standard residue; d: D form. Lys(Me3) = C[N+](C)(C)CCCC[C@H](N)C(=O)O; Lys(Me2) = CN(C)CCCC[C@H](N)C(=O)O

Key:
GST = target: T1, GST (Schistosoma japonicum, UniProt P08515); test: Biacore real-time binding of peptides to immobilized GST (control surface); conditions: binding test, peptides at 1 or 10 µM
T1 construct: made in house
T1 sequence (P08515 whole entry): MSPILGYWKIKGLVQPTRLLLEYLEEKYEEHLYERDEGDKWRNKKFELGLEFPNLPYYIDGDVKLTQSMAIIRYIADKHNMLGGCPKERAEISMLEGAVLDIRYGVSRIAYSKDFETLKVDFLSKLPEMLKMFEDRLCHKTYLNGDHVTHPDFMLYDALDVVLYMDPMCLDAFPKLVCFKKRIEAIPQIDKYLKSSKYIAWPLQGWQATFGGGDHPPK
Procedure: (§1) To test whether Corto directly interacted with RPL12 lysine 3, we measured real-time binding between CortoCD and several RPL12 peptides using Biacore. GST-CortoCD and GST were immobilized on a CM5 sensor chip. Then, several RPL12 peptides [unmodified (RPL12um), methylated on lysine 3 (RPL12K3me2, RPL12K3me3), methylated on lysine 10 (RPL12K10me3) or lysine 3 mutated (RPL12K3A)] were assayed for their binding to GST-CortoCD or GST (Figure 5, Figure S3).
GST or GST fusion proteins were dialyzed using a Slide-A-Lyser cassette (Thermo Scientific) in running buffer (10 mM Hepes pH7.4, 150 mM NaCl, 3 mM EDTA, 0.005% P20 surfactant) (GE Healthcare). Real-time protein interaction assays were performed using a Biacore 3000. Kinetics and binding tests were first performed on empty surfaces. Data presented here result from substraction of empty surface RU (1 to 5 depending on the experiment) from active surface RU. GST was covalently coupled to a CM5 sensor chip (GE Healthcare) via its N-terminal amino acid. The carboxymethylated dextran surface was activated by injecting a mixture of 0.2 M 1-ethyl-3-(3-dimethylaminopropyl) and 0.05 M N-hydroxysuccinimide. GST was immobilized on the chip by injecting a 30 µg.mL^−1 solution in NaAc pH5 buffer. GST-CortoCD and GST-HP1CD were immobilized by injecting a 100 µg.mL^−1 solution in the same buffer. Binding tests were performed by injecting peptides at 1 or 10 µM in running buffer at a flow rate of 5 µL.min^−1 during 5 min. Kinetic assays were performed only when the binding test was positive. […] To calculate association constants, peptides were diluted in series from 1 to 10 µM in running buffer and dilutions were injected sequentially at a flow rate of 5 µL.mn^−1 during 5 min. Dissociation kinetics were then run during 10 min to calculate dissociation constants. Between assays, the chip was regenerated with 10 mM glycine pH2.0. Kinetic constants were calculated with BIAevaluation Software (Biacore) using the Fit kinetic simultaneous ka/kd (1∶1 binding; Langmuir algorithm). […]

[1] = target: T2, Corto chromodomain (GST-CortoCD) (Drosophila melanogaster, UniProt P41046); test: Biacore real-time binding of peptides to immobilized GST-CortoCD; conditions: for kon: pH 7.4, Figure 5B, Biacore 3000, CM5 chip, peptides 1 to 10 µM in running buffer (10 mM Hepes pH7.4, 150 mM NaCl), 5 µL/min for 5 min, 1:1 Langmuir fit, read-out: CortoCD Ka
T2 construct: Over-expression of the Corto chromodomain (CortoCD); made in house
T2 sequence (P41046 127-203 limits assumed): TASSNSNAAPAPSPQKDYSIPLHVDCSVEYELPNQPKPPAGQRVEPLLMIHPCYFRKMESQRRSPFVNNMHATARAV
Procedure: as §1
(D) Equilibrium dissociation constant (KD) calculated from CortoCD or HP1CD interacting with unmethylated or trimethylated histone H3 peptides. For H3K9me3, peptide concentration was increased from 0 to 1 µM. For RPL12 and H3K27me3 peptide concentration was increased from 0 to 10 µM. NB: no binding; nd: not determined.
GST or GST fusion proteins were dialyzed using a Slide-A-Lyser cassette (Thermo Scientific) in running buffer (10 mM Hepes pH7.4, 150 mM NaCl, 3 mM EDTA, 0.005% P20 surfactant) (GE Healthcare). Real-time protein interaction assays were performed using a Biacore 3000. Kinetics and binding tests were first performed on empty surfaces. Data presented here result from substraction of empty surface RU (1 to 5 depending on the experiment) from active surface RU. GST was covalently coupled to a CM5 sensor chip (GE Healthcare) via its N-terminal amino acid. The carboxymethylated dextran surface was activated by injecting a mixture of 0.2 M 1-ethyl-3-(3-dimethylaminopropyl) and 0.05 M N-hydroxysuccinimide. GST was immobilized on the chip by injecting a 30 µg.mL^−1 solution in NaAc pH5 buffer. GST-CortoCD and GST-HP1CD were immobilized by injecting a 100 µg.mL^−1 solution in the same buffer. Binding tests were performed by injecting peptides at 1 or 10 µM in running buffer at a flow rate of 5 µL.min^−1 during 5 min. Kinetic assays were performed only when the binding test was positive. […] To calculate association constants, peptides were diluted in series from 1 to 10 µM in running buffer and dilutions were injected sequentially at a flow rate of 5 µL.mn^−1 during 5 min. Dissociation kinetics were then run during 10 min to calculate dissociation constants. Between assays, the chip was regenerated with 10 mM glycine pH2.0. Kinetic constants were calculated with BIAevaluation Software (Biacore) using the Fit kinetic simultaneous ka/kd (1∶1 binding; Langmuir algorithm). RPL12 peptides were synthesized at the IFR83 Peptide synthesis facility (Table S13). Histone peptides were provided by Diagenode (H3K27me3: sp-069-050; H3K4me3: sp-003-050; H3K9me3: sp-056-050; H3K4/K9um: sp-999-050; H3K27um: sp-998-050).

[2] = target: HP1 chromodomain (GST-HP1CD) (Drosophila melanogaster, UniProt P05205); test: Biacore real-time binding of peptides to immobilized GST-HP1CD
Sequence of HP1 chromodomain (GST-HP1CD) (P05205 24-82 limits assumed): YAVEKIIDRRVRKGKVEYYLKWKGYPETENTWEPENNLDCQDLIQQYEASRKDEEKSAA
Procedure: Figure 5 Preferential binding of Corto chromodomain to RPL12 trimethylated on lysine 3. (A) Biacore sensorgrams showing binding of either RPL12 unmethylated peptide (RPL12 um, left panel) or RPL12 peptide trimethylated on lysine 3 (RPL12K3me3, right panel) to CortoCD. Increasing concentrations of RPL12 um or RPL12K3me3 peptides were used [from 0 (light grey lines) to 10 µM (darker grey to black lines]. Binding (Y-axis, Response) is expressed in Resonance Units (RU) relative to time (X-axis). Note the response due to end of injection of the peptides at 300 s. (B) Kinetic parameters of interaction between CortoCD and RPL12 um, RPL12K3me2 or RPL12K3me3 peptides. Note that CortoCD interacts specifically with RPL12 trimethylated on lysine 3 (KD = 8 µM). (C) Equilibrium dissociation constant (KD) calculated for CortoCD or HP1CD in interaction with RPL12 um peptide, RPL12 methylated peptides, or RPL12K3A peptide. Note that CortoCD specifically binds to RPL12K3me3 (KD<100 µM). (D) Equilibrium dissociation constant (KD) calculated from CortoCD or HP1CD interacting with unmethylated or trimethylated histone H3 peptides. For H3K9me3, peptide concentration was increased from 0 to 1 µM. For RPL12 and H3K27me3 peptide concentration was increased from 0 to 10 µM. NB: no binding; nd: not determined. TEXT PRINTED IN THE PICTURE: (B) RpL12um: CortoCD Ka ( M^-1s^-1): 1.2; CortoCD Kd ( s^-1): 7.6.10^-4; CortoCD KD (μM): 624 | (B) RpL12K3me2: CortoCD Ka ( M^-1s^-1): 4.1; CortoCD Kd ( s^-1): 9.9.10^-4; CortoCD KD (μM): 238 | (B) RpL12K3me3: CortoCD Ka ( M^-1s^-1): 106; CortoCD Kd ( s^-1): 8.2.10^-4; CortoCD KD (μM): 8 | (C) RpL12um: CortoCD: 624; HP1CD: > 1000 | (C) RpL12K3me2: CortoCD: 238 | (C) RpL12K3me3: CortoCD: 8; HP1CD: 292 | (C) RpL12K10me3: CortoCD: NB; HP1CD: NB | (C) RpL12K3A: CortoCD: NB; HP1CD: NB | (D) H3K4me3: CortoCD: NB; HP1CD: NB | (D) H3K9me3: CortoCD: NB; HP1CD: 0.4 | (D) H3K27me3: CortoCD: NB; HP1CD: 0.7 | (D) H3um: CortoCD: NB; HP1CD: NB | (D) H3K27um: CortoCD: NB; HP1CD: NB DOUBTS OF THE COPYIST ABOUT THIS PICTURE: Panels C and D: the picture prints no measure or unit for the table values, so they are given with the row head only / Panel C, RpL12K3me2, HP1CD: the cell prints 'nd', which is not a result and is left out
To investigate whether RPL12K3me3 could bind to other chromodomains, we repeated these experiments using that of HP1 (HP1CD). GST-HP1CD was immobilized on the sensor chip and binding of either RPL12, RPL12K3me3, RPL12K10me3 or RPL12K3A was tested. None of these peptides specifically interacted with HP1CD (KD>200 µM) (Figure 5C, Figure S3). […] No binding of unmodified H3, H3K27me3, H3K9me3 or H3K4me3 peptides was observed (Figure 5D) while, as expected, the H3K9me3 peptide bound HP1CD with high affinity (KD = 0.4 µM).
GST or GST fusion proteins were dialyzed using a Slide-A-Lyser cassette (Thermo Scientific) in running buffer (10 mM Hepes pH7.4, 150 mM NaCl, 3 mM EDTA, 0.005% P20 surfactant) (GE Healthcare). Real-time protein interaction assays were performed using a Biacore 3000. Kinetics and binding tests were first performed on empty surfaces. Data presented here result from substraction of empty surface RU (1 to 5 depending on the experiment) from active surface RU. GST was covalently coupled to a CM5 sensor chip (GE Healthcare) via its N-terminal amino acid. The carboxymethylated dextran surface was activated by injecting a mixture of 0.2 M 1-ethyl-3-(3-dimethylaminopropyl) and 0.05 M N-hydroxysuccinimide. […]

[3] = >200 µM = no specific interaction, read-out: KD for HP1CD

| Molecule | binding of RPL12 peptides to GST (in words) (GST) | Kd [1] [µM] | Kd [2, 3] [µM] | kon [1] [M⁻¹ s⁻¹] | Kd ([2]; Figure 5C, RPL12 peptides 0 to 10 µM, NB = no binding, read-out: Equilibrium dissociation constant (KD), HP1CD) [µM] |
| --- | --- | --- | --- | --- | --- |
| H-PPAFDPTEVKLVYLRCVGGEVGA-OH [RpL12K3A] | None of these peptides bound GST | > 200 | > 200 | – | – |
| CC(C)C[C@H](NC(=O)[C@H](Cc1ccc(O)cc1)NC(=O)[C@@H](NC(=O)[C@H](CC(C)C)NC(=O)[C@H](CCCCN)NC(=O)[C@@H](NC(=O)[C@H](CCC(=O)O)NC(=O)[C@@H](NC(=O)[C@@H]1CCCN1C(=O)[C@H](CC(=O)O)NC(=O)[C@H](Cc1ccccc1)NC(=O)[C@H](CCCCN(C)C)NC(=O)[C@@H]1CCCN1C(=O)[C@@H]1CCCN1)[C@@H](C)O)C(C)C)C(C)C)C(=O)N[C@@H](CCCNC(=N)N)C(=O)N[C@@H](CS)C(=O)N[C@H](C(=O)NCC(=O)NCC(=O)N[C@@H](CCC(=O)O)C(=O)N[C@H](C(=O)NCC(=O)N[C@@H](C)C(=O)O)C(C)C)C(C)C [RpL12K3me2] (H-PP[Lys(Me2)]FDPTEVKLVYLRCVGGEVGA-OH) | – | > 200 | – | 4.1 | – |
| CC(C)C[C@H](NC(=O)[C@H](Cc1ccc(O)cc1)NC(=O)[C@@H](NC(=O)[C@H](CC(C)C)NC(=O)[C@H](CCCCN)NC(=O)[C@@H](NC(=O)[C@H](CCC(=O)O)NC(=O)[C@@H](NC(=O)[C@@H]1CCCN1C(=O)[C@H](CC(=O)O)NC(=O)[C@H](Cc1ccccc1)NC(=O)[C@H](CCCC[N+](C)(C)C)NC(=O)[C@@H]1CCCN1C(=O)[C@@H]1CCCN1)[C@@H](C)O)C(C)C)C(C)C)C(=O)N[C@@H](CCCNC(=N)N)C(=O)N[C@@H](CS)C(=O)N[C@H](C(=O)NCC(=O)NCC(=O)N[C@@H](CCC(=O)O)C(=O)N[C@H](C(=O)NCC(=O)N[C@@H](C)C(=O)O)C(C)C)C(C)C [RpL12K3me3] (H-PP[Lys(Me3)]FDPTEVKLVYLRCVGGEVGA-OH) | – | 8 | > 200 | 106 | – |
| PPKFDPTEVKLVYLRCVGGEVGA [RpL12um] | None of these peptides bound GST | > 200 | > 200 | 1.2 | > 1000 |
| CC(C)C[C@H](NC(=O)[C@H](Cc1ccc(O)cc1)NC(=O)[C@@H](NC(=O)[C@H](CC(C)C)NC(=O)[C@H](CCCC[N+](C)(C)C)NC(=O)[C@@H](NC(=O)[C@H](CCC(=O)O)NC(=O)[C@@H](NC(=O)[C@@H]1CCCN1C(=O)[C@H](CC(=O)O)NC(=O)[C@H](Cc1ccccc1)NC(=O)[C@H](CCCCN)NC(=O)[C@@H]1CCCN1C(=O)[C@@H]1CCCN1)[C@@H](C)O)C(C)C)C(C)C)C(=O)N[C@@H](CCCNC(=N)N)C(=O)N[C@@H](CS)C(=O)N[C@H](C(=O)NCC(=O)NCC(=O)N[C@@H](CCC(=O)O)C(=O)N[C@H](C(=O)NCC(=O)N[C@@H](C)C(=O)O)C(C)C)C(C)C [RpL12K10me3] (H-PPKFDPTEV[Lys(Me3)]LVYLRCVGGEVGA-OH) | None of these peptides bound GST | > 200 | > 200 | – | – |
